Assay results as given in PubChem BioAssay AID2060513 (Molecular Pharmacology Branch, DTP, NCI, 2025).

Test system: 299254-011-R-J1-PDC complex spheroids viability
Assay: Anticancer human tumor 299254-011-R-J1-PDC patient-derived melanoma cell line growth inhibition [GQUAD]
Settings: for IC50: curve of first compound; for viability, T/C: stronger effect = lower value
Excerpt: DNA G-quadruplex Stabilizer Agents in Combinations in Complex Spheroids
A high-throughput screen of multi-cell type tumor spheroids was designed to identify active combinations of DNA G-quadruplex stabilizer agents and targeted small molecules. Complex spheroids include a stromal component modeled by human endothelial cells (HUVEC) and fibroblasts modeled by human mesenchymal stem cells (MSCs). The concentration ranges selected for each drug and investigational agent were based upon clinically achievable concentrations if the clinical Cmax of the agent was known.
Compounds. The drugs and investigational agents: pidnarulex (CX-5461; NSC782164), APTO-253 (NSC789042), BRACO-19 (NSC847499), peposertib (NSC802822), ceralasertib (NSC780249), elimusertib (NSC800525), camonsertib (NSC841442), AZD-1390 (NSC803789), olaparib (NSC753686), talazoparib (NSC767125), ART-558 (NSC835418), sotorasib (NSC818433), MRTX-1133 (NSC836407), SN-38 (NSC673596), topotecan (NSC609699), etoposide (NSC141540), doxorubicin (NSC123127), gemcitabine (NSC613327), 5-fluorouracil (NSC19893), paclitaxel (NSC125973), vemurafenib (NSC761431), panobinostat (NSC761190), R-306465 (JNJ-16241199; NSC773264), adavosertib (NSC754352), TP-3654 (NSC805149), carboplatin (NSC241240), KSQ-4279 (NSC840948), and staurosporine (NSC755774) were obtained from the National Cancer Institute (NCI) Developmental Therapeutics Program Chemical Repository (34). The FDA-approved anticancer drug set is available from the NCI Developmental Therapeutics Program. […] The stock solutions were prepared in dimethyl sulfoxide (DMSO, Sigma-Aldrich, St. Louis, MO, cat. D2650) at 800-fold the tested concentration and stored at -70 degrees C prior to their use. All drugs and investigational agents were tested over a range starting from a high concentration at or near the clinical Cmax and decreasing in half-log increments. If the clinical Cmax for an agent had not been determined, the highest concentration tested was 10 microM.
2.3 Cell Culture. All cells were maintained in an incubator at 37 degrees C and 5% CO2 with 95% humidity. The PDC lines were cultured according to standard operating procedures established by the NCI PDMR. All PDCs were thawed and cultured in Matrigel-coated flasks prepared with a working solution of 1X Ham's F-12 nutrient mix, without supplementation (Invitrogen, cat. 11765054), 100 U/mL penicillin-streptomycin (Invitrogen, cat. 15140122), and 2.5% Matrigel (Corning Inc., cat. 354248) for the first three passages. The 857933-349-R-J2-PDC line was cultured in 6C/Colon 1B media, which includes advanced DMEM/F-12 (Thermo Fisher Scientific, cat. 12634028), 10 mM HEPES (Thermo Fisher Scientific, cat. 15630080), 1X GlutaMAX supplement (Thermo Fisher Scientific, cat. 35050061), 0.1 mg/mL primocin (InvivoGen, cat. ant-pm-2), 10% defined fetal bovine serum, heat inactivated (HyClone Laboratories Inc., cat. SH30070.03HI), 50% L-WRN conditioned media (ATCC, cat. CRL-3276), 1.25 mM N-Acetyl-L-cysteine (Sigma-Aldrich, cat. A9165), 10 mM nicotinamide (Sigma-Aldrich, cat. N0636), 1X B-27 supplement (Thermo Fisher Scientific, cat. 17504044), 1X N-2 supplement (Thermo Fisher Scientific, cat. 17502048), 10 microM Y-27632 dihydrochloride (Tocris Bioscience, cat. 1254), and 50 ng/mL human EGF recombinant protein (Thermo Fisher Scientific, cat. PHG0311). The 485176-168-R4-J1-PDC line was cultured in Panc media, which includes all 6C/Colon 1B media components plus 100 ng/mL human FGF-10 (Thermo Fisher Scientific, cat. 100-26), 500 nM SB-431542 (Selleckchem, cat. S1067), and gastrin (Tocris, cat. 3006).
[…]
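Further: spheroids exposed to the agents for seven days before readout.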
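Wherever viability, T/C is given: percent viability relative to DMSO vehicle control wells = 100%.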

Q: `O=C(NO)c1cnc(N2CCN(S(=O)(=O)c3ccc4ccccc4c3)CC2)nc1` + Cc1[nH]c2ccc(F)cc2c1-c1nc2c3cccnc3c3ncccc3c2[nH]1 was tested. Which IC50 (second compound 0.0316 µM) did it give?
A: 496 nM

Q: What about the IC50 (second compound 0.1 µM) of the same molecule?
A: 602 nM

Q: What about the IC50 (second compound 0.316 µM) of the same molecule?
A: 988 nM

Q: And the IC50 (second compound 1 µM)?
A: 1530 nM

Q: And the IC50 (second compound 3.16 µM)?
A: 1300 nM

Q: And the IC50 (second compound 10 µM)?
A: 1480 nM

Q: And the viability, T/C (second compound 0.0316 µM, first compound 0.0316 µM)?
A: 119%

Q: What about the viability, T/C (second compound 0.0316 µM, first compound 0.1 µM) of the same molecule?
A: 98%

Q: And the viability, T/C (second compound 0.0316 µM, first compound 0.316 µM)?
A: 76.8%

Q: And the viability, T/C (second compound 0.0316 µM, first compound 1 µM)?
A: 9.39%

Q: And the viability, T/C (second compound 0.0316 µM, first compound 3.16 µM)?
A: 0.24%

Q: And the viability, T/C (second compound 0.0316 µM, first compound 10 µM)?
A: 0.27%

Q: And the viability, T/C (second compound 0.1 µM, first compound 0.0316 µM)?
A: 99.2%

Q: What about the viability, T/C (second compound 0.1 µM, first compound 0.1 µM) of the same molecule?
A: 111%

Q: And the viability, T/C (second compound 0.1 µM, first compound 0.316 µM)?
A: 90.2%

Q: What about the viability, T/C (second compound 0.1 µM, first compound 1 µM) of the same molecule?
A: 18.1%

Q: And the viability, T/C (second compound 0.1 µM, first compound 3.16 µM)?
A: 0.2%

Q: And the viability, T/C (second compound 0.1 µM, first compound 10 µM)?
A: 0.25%

Q: And the viability, T/C (second compound 0.316 µM, first compound 0.0316 µM)?
A: 91.4%

Q: What about the viability, T/C (second compound 0.316 µM, first compound 0.1 µM) of the same molecule?
A: 102%

Q: What about the viability, T/C (second compound 0.316 µM, first compound 0.316 µM) of the same molecule?
A: 88.8%

Q: And the viability, T/C (second compound 0.316 µM, first compound 1 µM)?
A: 50.3%

Q: What about the viability, T/C (second compound 0.316 µM, first compound 3.16 µM) of the same molecule?
A: 0.17%

Q: What about the viability, T/C (second compound 0.316 µM, first compound 10 µM) of the same molecule?
A: 0.21%

Q: And the viability, T/C (second compound 1 µM, first compound 0.0316 µM)?
A: 112%

Q: And the viability, T/C (second compound 1 µM, first compound 0.1 µM)?
A: 91.6%

Q: What about the viability, T/C (second compound 1 µM, first compound 0.316 µM) of the same molecule?
A: 80.9%

Q: And the viability, T/C (second compound 1 µM, first compound 1 µM)?
A: 79.2%

Q: And the viability, T/C (second compound 1 µM, first compound 3.16 µM)?
A: 0.19%

Q: What about the viability, T/C (second compound 1 µM, first compound 10 µM) of the same molecule?
A: 0.22%

Q: What about the viability, T/C (second compound 3.16 µM, first compound 0.0316 µM) of the same molecule?
A: 99.2%

Q: What about the viability, T/C (second compound 3.16 µM, first compound 0.1 µM) of the same molecule?
A: 120%

Q: What about the viability, T/C (second compound 3.16 µM, first compound 0.316 µM) of the same molecule?
A: 108%

Q: And the viability, T/C (second compound 3.16 µM, first compound 1 µM)?
A: 64.5%

Q: What about the viability, T/C (second compound 3.16 µM, first compound 3.16 µM) of the same molecule?
A: 0.22%

Q: And the viability, T/C (second compound 3.16 µM, first compound 10 µM)?
A: 0.21%

Q: What about the viability, T/C (second compound 10 µM, first compound 0.0316 µM) of the same molecule?
A: 87.8%

Q: What about the viability, T/C (second compound 10 µM, first compound 0.1 µM) of the same molecule?
A: 103%

Q: What about the viability, T/C (second compound 10 µM, first compound 0.316 µM) of the same molecule?
A: 99.6%

Q: What about the viability, T/C (second compound 10 µM, first compound 1 µM) of the same molecule?
A: 75.4%

Q: What about the viability, T/C (second compound 10 µM, first compound 3.16 µM) of the same molecule?
A: 0.25%

Q: And the viability, T/C (second compound 10 µM, first compound 10 µM)?
A: 0.25%
